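Interpolation was linear, between the two tested concentrations surrounding the appropriate level; five concentrations were tested over 48 hours in 96-well plates. GI50 is the concentration that inhibits growth by half.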 Activity calls are given as the source filed them. No stated cut-off is given here; in the data, active = GI50 up to about 1.1 µM and inactive = higher.
Legend:
Experiment in all cases: growth of human tumour cells (NCI), 48 h
PC-3 = test system: PC-3
SW-620 = test system: SW-620
A549 = test system: A549
HOP-62 = test system: HOP-62
OVCAR-5 = test system: OVCAR-5
LOX IMVI = test system: LOX IMVI
RXF 393 = test system: RXF 393
UACC-62 = test system: UACC-62
SNB-75 = test system: SNB-75
CAKI-1 = test system: CAKI-1
HT-29 = test system: HT-29
COLO 205 = test system: COLO 205
K562 = test system: K562
MDA-MB-435 = test system: MDA-MB-435
NCI-H522 = test system: NCI-H522
SF-268 = test system: SF-268
ACHN = test system: ACHN
M14 = test system: M14
SK-OV-3 = test system: SK-OV-3
A498 = test system: A498

Measured: GI50

O=C(Cn1c(=O)ccn(C2OC(CO)C(O)C2F)c1=O)c1ccc(F)cc1 (centres undefined)
inactive: PC-3 > 100 µM | SW-620 > 100 µM | A549 > 100 µM | HOP-62 > 100 µM | OVCAR-5 > 100 µM | LOX IMVI > 100 µM | RXF 393 > 100 µM | UACC-62 > 100 µM | SNB-75 82.2 µM | CAKI-1 > 100 µM | HT-29 > 100 µM | COLO 205 > 100 µM | K562 > 100 µM | MDA-MB-435 > 100 µM | NCI-H522 > 100 µM | SF-268 > 100 µM | ACHN > 100 µM

O=C1NC(N2CCOCC2)=N/C1=C\c1ccc(Cl)cc1
inactive: M14 > 100 µM | PC-3 > 100 µM | SW-620 > 100 µM | A549 > 100 µM | SK-OV-3 > 100 µM | HOP-62 > 100 µM | OVCAR-5 > 100 µM | LOX IMVI > 100 µM | RXF 393 > 100 µM | UACC-62 > 100 µM | SNB-75 60.8 µM | CAKI-1 > 100 µM | HT-29 > 100 µM | COLO 205 > 100 µM | MDA-MB-435 > 100 µM | NCI-H522 > 100 µM | SF-268 > 100 µM | ACHN > 100 µM

COC(=O)[C@H](C)N1C(=O)N[C@@H](C(C)C)C1=O
inactive: M14 > 100 µM | PC-3 > 100 µM | SW-620 > 100 µM | A549 > 100 µM | SK-OV-3 > 100 µM | HOP-62 > 100 µM | OVCAR-5 > 100 µM | LOX IMVI > 100 µM | RXF 393 > 100 µM | UACC-62 > 100 µM | SNB-75 82 µM | CAKI-1 > 100 µM | HT-29 > 100 µM | COLO 205 > 100 µM | K562 > 100 µM | MDA-MB-435 > 100 µM | NCI-H522 > 100 µM | ACHN > 100 µM

CC(C)=CCC[C@@H](C)C1=C(O)C(=O)C(C)=C(Nc2ccccc2I)C1=O
inactive: M14 17 µM | PC-3 5.61 µM | SW-620 21.9 µM | A549 11.8 µM | SK-OV-3 18.5 µM | HOP-62 7.59 µM | OVCAR-5 38.2 µM | LOX IMVI 5.73 µM | RXF 393 13.2 µM | UACC-62 9.27 µM | SNB-75 6.14 µM | CAKI-1 12.9 µM | HT-29 14 µM | A498 5.43 µM | COLO 205 15.5 µM | K562 12.5 µM | MDA-MB-435 21.5 µM | SF-268 11.3 µM | ACHN 16.4 µM

CCC(=O)OCc1ccc2oc(=O)c(C(=O)Oc3cncc(Cl)c3)cc2c1
inactive: M14 > 100 µM | PC-3 46 µM | SW-620 > 100 µM | A549 > 100 µM | SK-OV-3 > 100 µM | HOP-62 > 100 µM | OVCAR-5 > 100 µM | LOX IMVI > 100 µM | RXF 393 37.4 µM | UACC-62 52.1 µM | SNB-75 79.8 µM | CAKI-1 > 100 µM | HT-29 76 µM | COLO 205 71.6 µM | K562 20.6 µM | MDA-MB-435 70 µM | NCI-H522 29.2 µM | SF-268 > 100 µM | ACHN > 100 µM

COc1ccc(C(=O)C(CC2C(=O)CC(C)(C)C(C(=O)C(=O)Nc3c(C)cccc3C)C2=O)c2ccc(OC)cc2)cc1 (centres undefined)
inactive: M14 > 100 µM | PC-3 > 100 µM | SW-620 > 100 µM | A549 > 100 µM | SK-OV-3 > 100 µM | HOP-62 > 100 µM | OVCAR-5 > 100 µM | LOX IMVI > 100 µM | RXF 393 > 100 µM | UACC-62 > 100 µM | SNB-75 > 100 µM | CAKI-1 > 100 µM | HT-29 > 100 µM | COLO 205 > 100 µM | MDA-MB-435 > 100 µM | NCI-H522 > 100 µM | SF-268 > 100 µM | ACHN > 100 µM

C/C(=C\COP(=O)(O)OP(=O)(O)O)CCCOCc1ccccc1
inactive: M14 > 100 µM | PC-3 > 100 µM | SW-620 > 100 µM | A549 > 100 µM | SK-OV-3 > 100 µM | HOP-62 > 100 µM | OVCAR-5 > 100 µM | LOX IMVI > 100 µM | RXF 393 > 100 µM | UACC-62 > 100 µM | SNB-75 > 100 µM | CAKI-1 > 100 µM | HT-29 > 100 µM | COLO 205 > 100 µM | K562 > 100 µM | MDA-MB-435 > 100 µM | NCI-H522 > 100 µM | SF-268 > 100 µM | ACHN > 100 µM

Cc1oc2c(cc(O)c3ccccc32)c2cccc1-2
inactive: M14 24.1 µM | PC-3 > 100 µM | SW-620 > 100 µM | A549 > 100 µM | SK-OV-3 > 100 µM | HOP-62 > 100 µM | OVCAR-5 > 100 µM | LOX IMVI > 100 µM | SNB-75 > 100 µM | CAKI-1 > 100 µM | HT-29 > 100 µM | A498 > 100 µM | COLO 205 > 100 µM | MDA-MB-435 > 100 µM | SF-268 > 100 µM | ACHN > 100 µM

— ChEMBL document CHEMBL1201862, “PubChem BioAssay data set” (2004)
